Experimental findings from patent publication US20080015138A1, “Metal binding compounds, metal binding compositions, and their uses” (AFFINERGY, INC., priority 2006, published 2008) are described below.

Square brackets hold non-standard residues; d marks the D form. Ends that are not written are not given here.

Experiment [1] in a line: Peptide binding assay on zirconium metal alloy. The conditions noted are these: Table 6. How it is done:
(§1) Relative binding strengths (affinities) of the peptides to metal, also used as a measure of binding specificity, were determined by testing serial dilutions of the peptide for binding to a target substrate comprising metal, as represented by titanium or steel. Plotting the absorbance observed across the concentration range for each peptide sequence yielded a binding curve of the peptides to its target substrate from which can be determined an EC50 (e.g., the concentration of peptide that gives 50% of the maximum signal in the binding curve is used as an estimate of the affinity of the peptide for the target). Preferred are peptides that bind to the selected target substrate (in this case, metal) with binding specificity, preferably with an EC50 of less than or equal to about 1 μM, and more preferably, in the nanomolar range (e.g., <0.1 μM). […] A typical binding assay for titanium (note, a different substrate may be substituted for titanium in the assay) may be perofrmed according to the following procedure.
(§2) Briefly, 5/32-inch diameter Grade 200 titanium beads were washed by sonication in acetone for 15 minutes, and the beads were allowed to dry. One bead was added to each well of a 96-well polypropylene plate. Two hundred fifty (250) μL of 1% BSA in PBS was added to each well of the plate. The surface of the wells was blocked by incubation for 1 hour at 20° C. with shaking at 500 rpm. The plate was washed three times with 250 μL of buffer-T per well. A 1:3 dilution series of each of the peptides was prepared using PBS as a diluent, starting at a peptide concentration of 20 μM, and going down to 0.0001 μM. A 200 μL sample of each dilution was added to wells of the plate. The plate was incubated for 1 hour at 20° C. with shaking at 500 rpm. The beads were washed three times with 250 μL of buffer-T per well. Two hundred (200) μL of streptavidin-alkaline phosphatase (“streptavidin AP”) reagent, at a dilution of 1:2000 in buffer+1% BSA, was added to each well. The plate was incubated for 30 minutes at room temperature. The beads were washed three times with 250 μL of buffer-T per well. Two hundred (200) μL of color development reagent (PNPP, p-nitrophenol phosphate) was added to each well. After color had developed (10 minutes), the samples were transferred to a clear 96-well plate and the absorbance at 405 nm determined. A binding curve was generated by plotting the absorbance at 405 nm against the peptide concentration (μM).
(§3) In this embodiment, illustrated are additional characterizations of the binding specificities of examples of metal binding domains, and peptides containing the metal binding domains, according to the present invention to various substrates, such as metal (as illustrated by stainless steel, zirconium metal alloy […]) versus binding to a polymer (as illustrated by polystyrene). Using the methods illustrated in Example 2, binding specificities for the various substrates were determined; with the results illustrated in Table 6 (Note: “none” means any binding detected was very low, and not above background binding (such as by a control peptide with no binding specificity for metal) in the binding assay; and thus, a binding curve for calculation of an EC50 could not be generated).

Experiment [2] can be described thus: Peptide binding assay on titanium beads (streptavidin-AP detection, binding curve EC50). How it is done:
as §1, §2

A short description of experiment [3]: Peptide binding assay on polymer (polystyrene). The conditions noted are these: Table 6, polymer illustrated by polystyrene. How it is done:
as §1, §2, §3

Experiment [4] can be described thus: Peptide binding assay on glass. The conditions noted are these: Table 6. On the procedure:
as §1, §2, §3

Experiment [5] in a line: Peptide binding assay on stainless steel. To be noted: for binding to stainless steel (in words): biotinylated peptides. On the procedure: as §1, §2, §3
Setting [6] is: Table 4, second-generation peptides, biotinylated at C-terminal lysine, binding to titanium, read-out: EC50.
Where [7] appears, read: Table 6, read-out: EC50 (μM) stainless steel.
Where [8] appears, read: Table 3, substituted peptides labeled with biotin, binding to titanium, read-out: EC50.
The mark [9] stands for this setting: Table 5, spacing between triplets, biotinylated peptides, binding to titanium, read-out: EC50.

Consider SKKHGGKKHGSSGK [SEQ ID NO: 70], for which the EC50 is less than 0.1 µM in experiment [1]; 13 nM in experiment [2] (setting [6]); greater than 20 µM in experiment [3]; less than 0.1 µM in experiment [4]; less than 0.1 µM in experiment [5] (setting [7]).
For SHKHPVTPRFFVVVSK [SEQ ID NO: 67], the EC50 in experiment [2] (setting [8]) is 200 nM.
Take SHKHPVTPGFFVVESK [SEQ ID NO: 63]: the EC50 in experiment [2] (setting [8]) was greater than 50000 nM.
Regarding “SHHKGGHHKGSSGK- (not fully specified; printed as SHHKGGHHKGSSGK-; also: name ends with '-': unspecified C-terminal conjugate) [SEQ ID NO: 78]”, in experiment [2] (setting [6]), the EC50 worked out at 500 nM.
Turning to SKHKGGGGKHKGSSGK [SEQ ID NO: 75], the EC50 was less than 0.1 µM in experiment [1]; 110 nM in experiment [2] (setting [6]); greater than 20 µM in experiment [3]; less than 0.1 µM in experiment [4]; less than 0.5 µM in experiment [5] (setting [7]).
On to “SHKHPVTPRFFVVESK [SEQ ID NO: 59, Parent]”, for which, in experiment [2] (setting [8]), the EC50 worked out at 4000 nM.
As for SKHKGGHKHGSSGK [SEQ ID NO: 73], the EC50 in experiment [1] is less than 0.5 µM; in experiment [2] (setting [6]), 45 nM; in experiment [3], greater than 20 µM; in experiment [4], less than 0.5 µM; in experiment [5] (setting [7]), less than 0.5 µM.
As to SGGGPVTPRFFVVESK [SEQ ID NO: 64], in experiment [2] (setting [8]), the EC50 is greater than 100000 nM.
On the same count and under the same terms, under SHKHGGGGRFFVVESK [SEQ ID NO: 61] stands 3000 nM.
SHKHPVTPRGGVVESK [SEQ ID NO: 60]: the EC50 in experiment [2] (setting [8]) was determined as 2000 nM.
As for SHKHGGHKHGGHKHGSSGK [SEQ ID NO: 72], the EC50 in experiment [1] is less than 0.1 µM; in experiment [2] (setting [6]) it was 35 nM; in experiment [4], less than 0.05 µM; in experiment [5] (setting [7]), less than 0.1 µM. In addition, the “EC50 (μM) Polymer” value in experiment [3] is on record as “None”.
SKHKGGGGGKHKGSSGK [SEQ ID NO: 84]: the EC50 in experiment [2] (setting [9]) was 70 nM.
For the substance “ssCDQNDIFYTSKKSHKSHCsr ([code s][code s]CDQNDIFYTSKKSHKSHC[code s][code r]; not fully specified; printed as ssCDQNDIFYTSKKSHKSHCsr; cysteine pairing not given here) [SEQ ID NO: 49]”, the “binding to titanium (in words)” value in experiment [2] (biotinylated peptides) was “showed binding”. Also, the “binding to stainless steel (in words)” value in experiment [5] is listed as “showed binding”.
Take “ssCNCYVTPNLLKHKCYKICsr ([code s][code s]CNCYVTPNLLKHKCYKIC[code s][code r]; not fully specified; printed as ssCNCYVTPNLLKHKCYKICsr; cysteine pairing not given here) [SEQ ID NO: 47]”: the “binding to titanium (in words)” value is reported as “showed binding” in experiment [2] (biotinylated peptides, listed as 47) and “strongest binding” in experiment [2] (biotinylated peptides, listed as SEQ ID NO:47). Besides, the EC50 in experiment [2] (biotinylated phage-derived peptide, text of Example 2, read-out: EC50 on titanium) is roughly 800 nM; in experiment [5] (biotinylated phage-derived peptide, text of Example 2, read-out: EC50 on stainless steel) it was roughly 1 µM. For the same substance, the “binding to stainless steel (in words)” value in experiment [5] (listed as 47) is listed as “showed binding”; in experiment [5] (listed as SEQ ID NO:47), “strongest binding”.
SHKHPVTPRFFVVNSK [SEQ ID NO: 69]: the EC50 in experiment [2] (setting [8]) amounted to 800 nM.
Turning to SKHKGKHKGSSGK [SEQ ID NO: 82], the EC50 in experiment [2] (setting [9]) worked out at 60 nM.
Consider SHKHPVTPRFFVVKSK [SEQ ID NO: 66], for which the EC50 in experiment [2] (setting [8]) stood at 50 nM.
On to “ssCSHNHHKLTAKHQVAHKCsr ([code s][code s]CSHNHHKLTAKHQVAHKC[code s][code r]; not fully specified; printed as ssCSHNHHKLTAKHQVAHKCsr; cysteine pairing not given here) [SEQ ID NO: 48]”, for which, in experiment [2] (biotinylated peptides), the “binding to titanium (in words)” value was “showed binding”. For the same substance, the “binding to stainless steel (in words)” value in experiment [5] is given as “showed binding”.
With SKHKKHKGSSGK [SEQ ID NO: 81], the EC50 in experiment [2] (setting [9]) stood at 60 nM.
As for SHKHPVTPRFFVVGSK [SEQ ID NO: 68], the EC50 in experiment [2] (setting [8]) was found to be 600 nM.
Regarding SHKHGGGGHKHGSSGK [SEQ ID NO: 76], the EC50 in experiment [2] (setting [6]) worked out at 150 nM.
For the substance SHKHPVTPRGGGGESK [SEQ ID NO: 62], in experiment [2] (setting [8]), the EC50 came to 3000 nM.
As for SKHKGGGKHKGSSGK [SEQ ID NO: 83], the EC50 in experiment [2] (setting [9]) came to 75 nM.
For SKHKGGKHKGSSGK [SEQ ID NO: 71], the EC50 in experiment [1] is less than 0.1 µM; in experiment [2] (setting [6]), 26 nM; in experiment [2] (setting [9]) it was 26 nM; in experiment [3] it was greater than 20 µM; in experiment [4], less than 0.5 µM; in experiment [5] (setting [7]) it was less than 0.5 µM.
As for SKHKGGKHKGGKHKGSSGK [SEQ ID NO: 79], the EC50 in experiment [1] is less than 0.05 µM; in experiment [2] (setting [6]), 25 nM; in experiment [2] (Table 7, peptide monomer versus branched polymers, binding to titanium, read-out: EC50) it was 25 nM; in experiment [3] it was greater than 20 µM; in experiment [4], less than 0.05 µM; in experiment [5] (setting [7]), less than 0.05 µM.
For the substance SHKHGGKHKGSSGK [SEQ ID NO: 74], the EC50 in experiment [1] is less than 0.1 µM; in experiment [2] (setting [6]), 60 nM; in experiment [3] it was greater than 20 µM; in experiment [4], less than 0.5 µM; in experiment [5] (setting [7]), less than 0.5 µM.
For “ssSDKCHKHWYCYESKYGGSsr ([code s][code s]SDKCHKHWYCYESKYGGS[code s][code r]; cysteine pairing not given here; also: biotinylated (site not given here)) [SEQ ID NO: 51]”, the “binding to titanium (in words)” value in experiment [2] (biotinylated peptides) is “showed binding”. Further, in experiment [5], the “binding to stainless steel (in words)” value is “showed binding”.
Regarding SHGHGGHGHGSSGK [SEQ ID NO: 80], the EC50 in experiment [2] (setting [6]) stood at 4000 nM. For the same substance, in experiment [2] (biotinylated peptides), the “binding to titanium (in words)” value was “comparably poorer binding affinity”.
SHKHGGHKHGSSGK [SEQ ID NO: 77]: the EC50 in experiment [1] is less than 1 µM; in experiment [2] (setting [6]), 200 nM; in experiment [3], greater than 20 µM; in experiment [4], less than 1 µM; in experiment [5] (setting [7]), less than 1 µM.
In the case of SHKHPVTPRFFVVYSK [SEQ ID NO: 65], in experiment [2] (setting [8]), the EC50 was determined as 50 nM.
